From PMC10743086, “Immunofluorescence-Based Assay for High-Throughput Analysis of Multidrug Resistance Markers in Non-Small Cell Lung Carcinoma Patient-Derived Cells” (Diagnostics, 2023)

Experiments:
Format in all cases: cell-based, human
NCI-H460 cells = test: Cytotoxicity by immunofluorescence cell scoring (cell counts), NSCLC cell line; conditions: 24 h treatment
Experimental: (§1) Vinorelbine and pemetrexed were purchased from Selleckchem (Houston, TX, USA). Carboplatin, cisplatin, docetaxel, etoposide, gemcitabine, gefitinib, and paclitaxel were purchased from Sigma-Aldrich Chemie GmbH (Taufkirchen, Germany). The cisplatin, carboplatin, and gemcitabine were dissolved in sterile water, while the etoposide, docetaxel, vinorelbine, paclitaxel, gefitinib, and pemetrexed were dissolved in DMSO and stored at −20 °C. Before treatment, all the stock solutions were freshly diluted in sterile water.
(§2) The compounds were administered 48 h after seeding. The treatment lasted 24 h.
(§3) The immunofluorescence assay for the quantification of MDR markers was optimized to distinguish cancer cells from stromal cells using a cytokeratin 8/18 (CK8/18) antibody cocktail. The cells were fixed with 4% paraformaldehyde for 20 min at RT and washed three times with PBS using the Wellwash Versa microplate washer (Thermo Fisher Scientific, Waltham, MA, USA). The cells were then blocked with 2% bovine serum albumin (BSA) in PBS for 1 h at RT. […] Co-immunostaining with antibodies against MDR markers was performed to detect the presence of ABCB1, ABCC1, and ABCG2 in both the cancer and stromal cells. […] The secondary antibodies were incubated with the cells at RT for 2 h in the dark. […] Finally, the cells were washed three times with PBS and stored at 4 °C in the dark before imaging.
(§4) The fluorescently labeled cells were imaged using the ImageXpress Pico Automated Cell Imaging System (Molecular Devices, San Jose, CA, USA) with a 4x objective after determining the appropriate exposure time for each illumination filter. Analysis of the obtained images was performed using CellReporterXpress software v. 2.8.2.669 (Molecular Devices). The cytotoxicity of the compounds was determined using the Cell Scoring Analysis Protocol. […] Expression of MDR markers was determined using the Multi-Wavelength Cell Scoring Analysis Protocol.

MRC-5 cells = test: Cytotoxicity by immunofluorescence cell scoring (cell counts), normal fibroblasts; conditions: 24 h treatment
Experimental: as §1, §2, §3, §4

[1] = tested on: ABCB1 expression in MRC-5 cells; test: Immunofluorescence assay of MDR marker ABCB1 expression; conditions: five concentrations, 24 h
Experimental: as §1, §2, §3, §4

[2] = tested on: ABCB1 expression in NCI-H460 cells; test: as above; conditions: five concentrations, 24 h
Experimental: as §1, §2, §3, §4

[3] = tested on: ABCB1 expression in NCI-H460/R cells; test: as above; conditions: five concentrations, 24 h
Experimental: as §1, §2, §3, §4

[4] = tested on: Cancer cells (CK8/18+) of patient-derived NSCLC cultures; test: Cytotoxicity in patient-derived NSCLC cultures, cancer cells; conditions: 7 days treatment
Experimental: (§5) Tissue samples were collected during surgery, and the NSCLC diagnosis, histological grade, stage, necrosis, and lymph node invasion status were determined by histopathological analysis. […] The surgical specimens were placed in a sterile tube containing antibiotic-antimycotic solution (Sigma-Aldrich Chemie GmbH, Taufkirchen, Germany) and immediately transported to the research laboratory for further processing.
(§6) Upon arrival, the tissue was manually chopped with a surgical blade in a Petri dish under sterile conditions. The samples were cut into 3–5 mm pieces and further dissociated using the Tumor Dissociation Kit (Miltenyi Biotec, Bergisch Gladbach, Germany). The Tumor Dissociation Kit was used to dissociate the cells from the tumor tissue according to the manufacturer’s instructions. The samples were incubated in a 37 °C orbital shaker (KS 4000 ic control, IKA, Königswinter, Germany) at 300 rpm for 90 min. After incubation, the dissociated tissue was placed in DMEM/Ham’s F12 (1:3 ratio) growth medium supplemented with 5% fetal bovine serum (Corning, NY, USA), antibiotic-antimycotic solution, 4 µg/mL hydrocortisone (Sigma-Aldrich Chemie GmbH, Taufkirchen, Germany), 1 µg/mL insulin (Sigma-Aldrich Chemie GmbH, Taufkirchen, Germany), 10 ng/mL epidermal growth factor (BioLegend, San Diego, CA, USA), and 24 µg/mL adenine (Sigma-Aldrich Chemie GmbH, Taufkirchen, Germany). The DMEM and Ham’s F12 growth media were purchased from Sigma-Aldrich Chemie GmbH (Taufkirchen, Germany).
(§7) The dissociated tissue was cultured in T-25 cell culture flasks until cell attachment was observed before the medium was replaced. If no cell attachment was achieved within 7 days, the sample was discarded. Successful patient-derived cultures were maintained at 37 °C in a humidified atmosphere with 5% CO2 and grown to confluence before undergoing further experiments. […] Partial trypsinization was performed by detaching the fibroblast-like cells with 1 mL of 0.05% trypsin for 1 min at 37 °C, followed by 2 min at room temperature (RT).
as §1
(§8) The primary cells were seeded in black, clear bottom 384-well cell culture microplates (Thermo Fisher Scientific, Waltham, MA, USA) in 50 µL of cell growth medium at a density of 1000 cells per well. The compounds were administered 72 h after seeding. The treatment lasted 7 days.
as §3

[5] = tested on: Non-cancer cells (CK8/18-) of patient-derived NSCLC cultures; test: Cytotoxicity in patient-derived NSCLC cultures, non-cancer cells; conditions: 7 days treatment
Experimental: as §5, §6, §7, §1, §8, §3

[6] = tested on: ABCB1 expression in cancer cells (CK8/18+); test: Immunofluorescence assay of ABCB1 expression in patient-derived NSCLC cultures; conditions: 7 days
Experimental: as §5, §6, §7, §1, §8, §3

[7] = tested on: ABCC1 expression in cancer cells (CK8/18+); test: Immunofluorescence assay of ABCC1 expression in patient-derived NSCLC cultures; conditions: 7 days
Experimental: as §5, §6, §7, §1, §8, §3

[8] = tested on: ABCG2 expression in cancer cells (CK8/18+); test: Immunofluorescence assay of ABCG2 expression in patient-derived NSCLC cultures; conditions: 7 days
Experimental: as §5, §6, §7, §1, §8, §3

[9] = NCI-H460 (co-culture with MRC-5)
[10] = MRC-5 (co-culture with NCI-H460)
[11] = MRC-5 (co-culture with NCI-H460/R)
[12] = culture TR58, cancer cells (CK8/18+)
[13] = culture TR64, cancer cells (CK8/18+)
[14] = culture TR65, cancer cells (CK8/18+)
[15] = culture TR84, cancer cells (CK8/18+)
[16] = culture TR87, cancer cells (CK8/18+)

Compound `N.N.[Cl][Pt][Cl]` [Cisplatin, cisplatin] has an IC50 (NCI-H460 cells; [9]) of 9.79 µM, an IC50 (NCI-H460 cells; NCI-H460 monoculture) of 5.71 µM and an IC50 (MRC-5 cells; [10]) of over 15 µM. For the same compound, the IC50 (MRC-5 cells; [11]) was over 15 µM, the IC50 (MRC-5 cells; MRC-5 monoculture) was 14.7 µM and the “ABCB1 Expression” value [1, 10] was “no change”. For the same compound, the “ABCB1 Expression” value [1, 11] was “no change”, the “ABCB1 Expression” value ([1]; MRC-5 monoculture) was “no change” and the “ABCB1 Expression” value [2, 9] was “no change”. The “ABCB1 Expression” value ([2]; NCI-H460 monoculture) was “increase (An increase in ABCB1 expression of at least 20% at a minimum of one concentration is shown in the table.)”, the “ABCB1 Expression” value ([3]; NCI-H460/R (co-culture with MRC-5)) was “no change” and the “ABCB1 Expression” value ([3]; NCI-H460/R monoculture) was “no change”. The IC50 [4, 12] was 5.78 µM, the IC50 [4, 13] was 6.07 µM and the IC50 [4, 14] was 14.6 µM. The IC50 [4, 15] was 2.11 µM, the IC50 [4, 16] was 4.82 µM and the IC50 ([5]; culture TR58, non-cancer cells (CK8/18-)) was 5.1 µM. It also gave an IC50 ([5]; culture TR64, non-cancer cells (CK8/18-)) of 8.26 µM, an IC50 ([5]; culture TR65, non-cancer cells (CK8/18-)) of 1.21 µM and an IC50 ([5]; culture TR84, non-cancer cells (CK8/18-)) of 0.789 µM. The IC50 ([5]; culture TR87, non-cancer cells (CK8/18-)) was 3.38 µM, the ABCB1 Expression [6, 12] was “no change” and the ABCB1 Expression [6, 13] was “increase (An increase in ABCB1, ABCC1, or ABCG2 expression of at least 20% at a minimum of one concentration is shown in the table.)”. For the same compound, the ABCB1 Expression [6, 14] was “increase (An increase in ABCB1, ABCC1, or ABCG2 expression of at least 20% at a minimum of one concentration is shown in the table.)”, the ABCB1 Expression [6, 15] was “increase (An increase in ABCB1, ABCC1, or ABCG2 expression of at least 20% at a minimum of one concentration is shown in the table.)” and the ABCB1 Expression [6, 16] was “increase (An increase in ABCB1, ABCC1, or ABCG2 expression of at least 20% at a minimum of one concentration is shown in the table.)”. For the same compound, the ABCC1 expression [7, 12] was “no change”, the ABCC1 expression [7, 13] was “increase (An increase in ABCB1, ABCC1, or ABCG2 expression of at least 20% at a minimum of one concentration is shown in the table.)” and the ABCC1 expression [7, 14] was “increase (An increase in ABCB1, ABCC1, or ABCG2 expression of at least 20% at a minimum of one concentration is shown in the table.)”. The ABCC1 expression [7, 15] was “increase (An increase in ABCB1, ABCC1, or ABCG2 expression of at least 20% at a minimum of one concentration is shown in the table.)”, the ABCC1 expression [7, 16] was “increase (An increase in ABCB1, ABCC1, or ABCG2 expression of at least 20% at a minimum of one concentration is shown in the table.)” and the ABCG2 expression [8, 12] was “increase (An increase in ABCB1, ABCC1, or ABCG2 expression of at least 20% at a minimum of one concentration is shown in the table.)”. For the same compound, the ABCG2 expression [8, 13] was “increase (An increase in ABCB1, ABCC1, or ABCG2 expression of at least 20% at a minimum of one concentration is shown in the table.)”, the ABCG2 expression [8, 14] was “increase (An increase in ABCB1, ABCC1, or ABCG2 expression of at least 20% at a minimum of one concentration is shown in the table.)” and the ABCG2 expression [8, 15] was “increase (An increase in ABCB1, ABCC1, or ABCG2 expression of at least 20% at a minimum of one concentration is shown in the table.)”. The ABCG2 expression [8, 16] was “increase (An increase in ABCB1, ABCC1, or ABCG2 expression of at least 20% at a minimum of one concentration is shown in the table.)”.
